Assay results as given in PubChem BioAssay AID330 (DTP/NCI, 2004).
Several values for one entry are separate records, joined by “and”; a condition that tells them apart may be missing. Equal values may be shown once. Inconclusive results and toxic doses are left out. How the source made its calls: active means survival T/C of 150% or more; inactive means T/C below 125% in these data.

Test system: P388 leukemia ip, CD2F1 mice, survival T/C
Test: NCI In Vivo Anticancer Drug Screen. Data for tumor model P388 Leukemia (intraperitoneal) in CD2F1 (CDF1) mice
Settings: endpoint: median survival time, higher = longer survival
Summary of the method: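 Mice carrying the transplanted tumor received test compound or vehicle. Survival was recorded in each group, and the value is the treated-group measurement divided by that of the vehicle-treated control group.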

[1] = dose: 12.5 mg/kg/injection, schedule: Q01DX009 (ip), vehicle: saline with Tween-80
[2] = dose: 25.0 mg/kg/injection, schedule: Q01DX009 (ip), vehicle: saline with Tween-80
[3] = dose: 50.0 mg/kg/injection, schedule: Q01DX009 (ip), vehicle: saline with Tween-80
[4] = dose: 50.0 mg/kg/injection, schedule: Q01DX005 (ip), vehicle: Klucel (hydroxypropylcellulose) (HPC)
[5] = dose: 100.0 mg/kg/injection, schedule: Q01DX005 (ip), vehicle: Klucel (hydroxypropylcellulose) (HPC)
[6] = dose: 200.0 mg/kg/injection, schedule: Q01DX005 (ip), vehicle: Klucel (hydroxypropylcellulose) (HPC)
[7] = dose: 25.0 mg/kg/injection, schedule: Q01DX009 (ip), vehicle: Klucel (hydroxypropylcellulose) (HPC)
[8] = dose: 50.0 mg/kg/injection, schedule: Q01DX009 (ip), vehicle: Klucel (hydroxypropylcellulose) (HPC)
[9] = dose: 100.0 mg/kg/injection, schedule: Q01DX009 (ip), vehicle: Klucel (hydroxypropylcellulose) (HPC)
[10] = dose: 100.0 mg/kg/injection, schedule: Q01DX009 (ip), vehicle: saline with Tween-80
[11] = dose: 200.0 mg/kg/injection, schedule: Q01DX009 (ip), vehicle: Klucel (hydroxypropylcellulose) (HPC)
[12] = dose: 200.0 mg/kg/injection, schedule: Q01DX009 (ip), vehicle: saline with Tween-80
[13] = dose: 100.0 mg/kg/injection, schedule: Q01DX001 (ip), vehicle: saline
[14] = dose: 200.0 mg/kg/injection, schedule: Q01DX001 (ip), vehicle: saline
[15] = dose: 400.0 mg/kg/injection, schedule: Q01DX001 (ip), vehicle: saline
[16] = dose: 50.0 mg/kg/injection, schedule: Q01DX005 (ip), vehicle: saline
[17] = dose: 100.0 mg/kg/injection, schedule: Q01DX005 (ip), vehicle: saline
[18] = dose: 100.0 mg/kg/injection, schedule: Q01DX009 (ip), vehicle: saline
[19] = dose: 60.0 mg/kg/injection, schedule: Q01DX005 (ip), vehicle: Klucel (hydroxypropylcellulose) (HPC)
[20] = dose: 120.0 mg/kg/injection, schedule: Q01DX005 (ip), vehicle: Klucel (hydroxypropylcellulose) (HPC)
[21] = dose: 240.0 mg/kg/injection, schedule: Q01DX005 (ip), vehicle: Klucel (hydroxypropylcellulose) (HPC)

Measured: T/C

COc1ccc(C2=NC(c3ccccc3)NC(c3ccccc3)/C2=C/c2ccccc2)cc1 (stereo unspecified)
inactive: dose: 6.25 mg/kg/injection, schedule: Q01DX009 (ip), vehicle: saline with Tween-80 100 % of control | [1] 100 % of control | [2] 105 % of control | [3] 100 % of control

COc1cc(/C=C2\N=C(C)OC2=O)ccc1O
inactive: [4] 106 % of control | [5] 101 % of control | [6] 104 % of control

O=C(O)C1(NO)CCCCC1
inactive: [7] 105 % of control | [8] 107 % of control and 110 % of control and 115 % of control | [3] 107 % of control and 119 % of control | [9] 105 % of control and 108 % of control and 119 % of control | [10] 120 % of control and 123 % of control | [11] 111 % of control and 87 % of control | [12] 99 % of control and 119 % of control | dose: 400.0 mg/kg/injection, schedule: Q01DX009 (ip), vehicle: Klucel (hydroxypropylcellulose) (HPC) 110 % of control and 96 % of control | dose: 600.0 mg/kg/injection, schedule: Q01DX009 (ip), vehicle: Klucel (hydroxypropylcellulose) (HPC) 101 % of control and 98 % of control

O=C1CSC(c2ccccc2F)N1c1nccs1 (stereo unspecified)
inactive: [4] 100 % of control | [5] 103 % of control | [6] 109 % of control

CC(=O)c1ccc[n+](Cc2ccc([N+](=O)[O-])cc2)c1
inactive: [2] 95 % of control | [3] 100 % of control | [10] 90 % of control

COC(=O)C1CC2c3ccccc3C1c1ccccc12 (stereo unspecified)
inactive: dose: 60.0 mg/kg/injection, schedule: Q01DX005 (ip), vehicle: saline with Tween-80 99 % of control | dose: 120.0 mg/kg/injection, schedule: Q01DX005 (ip), vehicle: saline with Tween-80 99 % of control | dose: 240.0 mg/kg/injection, schedule: Q01DX005 (ip), vehicle: saline with Tween-80 101 % of control

Cc1nnc(NC(=O)CCl)s1
inactive: [2] 95 % of control | [3] 100 % of control | [10] 104 % of control

O=C(O)CSc1ccc(NC(=O)NC2CCCCC2)cc1
inactive: dose: 100.0 mg/kg/injection, schedule: Q04DX003 (ip), vehicle: saline with Tween-80 100 % of control | dose: 200.0 mg/kg/injection, schedule: Q04DX003 (ip), vehicle: saline with Tween-80 100 % of control | dose: 400.0 mg/kg/injection, schedule: Q04DX003 (ip), vehicle: saline with Tween-80 100 % of control

CCc1[nH]c2ccc(C)cc2c1C(=O)c1cccnc1
inactive: dose: 50.0 mg/kg/injection, schedule: Q04DX003 (ip), vehicle: Klucel (hydroxypropylcellulose) (HPC) 94 % of control | dose: 100.0 mg/kg/injection, schedule: Q04DX003 (ip), vehicle: Klucel (hydroxypropylcellulose) (HPC) 103 % of control | dose: 200.0 mg/kg/injection, schedule: Q04DX003 (ip), vehicle: Klucel (hydroxypropylcellulose) (HPC) 98 % of control

CC(C)[N+](=C1O[B-](c2ccccc2)(c2ccccc2)O[B-]1(c1ccccc1)[C+]1CCCCC1)C(C)C (stereo unspecified)
inactive: dose: 50.0 mg/kg/injection, schedule: Q01DX005 (ip), vehicle: saline with Tween-80 102 % of control | dose: 100.0 mg/kg/injection, schedule: Q01DX005 (ip), vehicle: saline with Tween-80 108 % of control | dose: 200.0 mg/kg/injection, schedule: Q01DX005 (ip), vehicle: saline with Tween-80 116 % of control

CCN(C)c1cc(=O)c2ccc3ccccc3c2o1
inactive: [3] 101 % of control | [10] 105 % of control

Nc1cnc2ccccn12
inactive: [3] 97 % of control | [10] 102 % of control

NC(N)=N/C(N)=N\c1nn[nH]n1
inactive: [13] 95 % of control | [14] 100 % of control | [15] 100 % of control

CCCC(CCC)=NNC(=S)SC
inactive: [1] 95 % of control | [2] 95 % of control | [3] 106 % of control and 95 % of control

CCC1C(=O)OCC1Cc1cncn1C (stereo unspecified)
inactive: [16] 100 % of control | [17] 94 % of control | dose: 200.0 mg/kg/injection, schedule: Q01DX005 (ip), vehicle: saline 98 % of control

CC(=O)C1C(=O)C(=O)N(c2ccc(C)cc2C)C1=O (stereo unspecified)
inactive: [8] 105 % of control | [9] 114 % of control | [11] 110 % of control

CCOC(=O)c1c(C)cn[nH]c1=O
inactive: [3] 96 % of control | [10] 99 % of control | [12] 95 % of control

c1ccc2cc(-c3cc(-c4cc(-c5ccc6ccccc6c5)on4)no3)ccc2c1
inactive: dose: 60.0 mg/kg/injection, schedule: Q01DX005 (ip), vehicle: Klucel + Tween-80 100 % of control | dose: 120.0 mg/kg/injection, schedule: Q01DX005 (ip), vehicle: Klucel + Tween-80 95 % of control | dose: 240.0 mg/kg/injection, schedule: Q01DX005 (ip), vehicle: Klucel + Tween-80 91 % of control

Cc1[nH]c2ccc(Br)cc2c1/C=N/NC(N)=S
inactive: dose: 100.0 mg/kg/injection, schedule: Q01DX001 (ip), vehicle: Klucel (hydroxypropylcellulose) (HPC) 101 % of control | dose: 200.0 mg/kg/injection, schedule: Q01DX001 (ip), vehicle: Klucel (hydroxypropylcellulose) (HPC) 97 % of control | dose: 400.0 mg/kg/injection, schedule: Q01DX001 (ip), vehicle: Klucel (hydroxypropylcellulose) (HPC) 90 % of control

OC1CCc2ncccc2O1 (stereo unspecified)
inactive: dose: 50.0 mg/kg/injection, schedule: Q01DX009 (ip), vehicle: saline 102 % of control | [18] 102 % of control | dose: 200.0 mg/kg/injection, schedule: Q01DX009 (ip), vehicle: saline 102 % of control

COc1cc(NC(C)=O)c(OC)cc1N
inactive: dose: 25.0 mg/kg/injection, schedule: Q04DX002 (ip), vehicle: saline 104 % of control | dose: 50.0 mg/kg/injection, schedule: Q04DX002 (ip), vehicle: saline 98 % of control

Cc1cc(NC(=O)C(=O)O)cc2c(=O)cc(C(=O)O)[nH]c12
inactive: [7] 102 % of control | [8] 117 % of control and 124 % of control

O=C(O)CN(CCN(CC(=O)O)CC(=O)O)CCN(CC(=O)O)CC(=O)O
inactive: [4] 103 % of control | [5] 108 % of control | [9] 91 % of control | [6] 103 % of control | [11] 94 % of control

O=C(NCSC1=NCCS1)NCSC1=NCCS1
inactive: dose: 50.0 mg/kg/injection, schedule: Q01DX009 (ip), vehicle: suspension in saline 101 % of control and 103 % of control | [18] 91 % of control | dose: 100.0 mg/kg/injection, schedule: Q01DX009 (ip), vehicle: suspension in saline 100 % of control and 93 % of control | dose: 200.0 mg/kg/injection, schedule: Q01DX009 (ip), vehicle: suspension in saline 100 % of control and 105 % of control | dose: 400.0 mg/kg/injection, schedule: Q01DX009 (ip), vehicle: saline 94 % of control | dose: 400.0 mg/kg/injection, schedule: Q01DX009 (ip), vehicle: suspension in saline 101 % of control and 98 % of control

CC[C@@H]1CN2CCc3c([nH]c4ccccc34)[C@@H]2C[C@@H]1/C(=C\OC)C(=O)OC
inactive: dose: 25.0 mg/kg/injection, schedule: Q01DX005 (ip), vehicle: saline 100 % of control and 96 % of control | [16] 98 % of control and 107 % of control and 108 % of control | [17] 109 % of control (2×) and 123 % of control

N/C=N/OC(c1ccccc1)c1ccccc1
inactive: dose: 50.0 mg/kg/injection, schedule: Q01DX005 (ip), vehicle: Klucel + Tween-80 99 % of control | dose: 100.0 mg/kg/injection, schedule: Q01DX005 (ip), vehicle: Klucel + Tween-80 102 % of control | dose: 200.0 mg/kg/injection, schedule: Q01DX005 (ip), vehicle: Klucel + Tween-80 98 % of control

C=CCSC(=S)Nc1nc2ccc([N+](=O)[O-])cc2s1
inactive: dose: 6.25 mg/kg/injection, schedule: Q01DX009 (ip), vehicle: Klucel (hydroxypropylcellulose) (HPC) 106 % of control | dose: 12.5 mg/kg/injection, schedule: Q01DX009 (ip), vehicle: Klucel (hydroxypropylcellulose) (HPC) 109 % of control | [7] 103 % of control

NC(=S)c1cccc(/C=N/Nc2ccccn2)c1
inactive: [13] 96 % of control | [14] 94 % of control | [15] 96 % of control

CC1=CC(=C2C(=O)c3ccccc3C2=O)C=C(C)O1
inactive: [4] 101 % of control | [19] 95 % of control | [5] 89 % of control | [20] 90 % of control | [6] 88 % of control | [21] 87 % of control

CN1c2ccccc2Sc2c1n[nH]c2-c1ccccc1
inactive: [19] 104 % of control | [20] 111 % of control | [21] 119 % of control
